According to patent US20090175882A1, “METHODS AND COMPOSITIONS FOR TREATING HYPERALGESIA” (IRM LLC, priority 2006, published 2009):
Entries after “also recorded” stand apart in the source; their conditions may differ.

Key:
[1] = system: TRPV1, TRPV2, TRPV3, TRPV4, or TRPM8; test: Effect on other thermoTRPs (summary statement); type: cell-based
Source text: TRPA1 inhibitors that can be employed in the practice of the present invention include compounds that interferes with the expression, modification, regulation or activation of TRPA1, or compounds that down-regulates one or more of the normal biological activities of TRPA1 (e.g., its ion channel). […] Various TRPA1-specific antagonists can be used in the instant invention. Some of these TRPA1-specific inhibitors are identified by the present inventors, as described in the Examples below. These compounds can be obtained commercially or are otherwise described in the art. One such compound is Compound 18, (Z)-4-(4-chlorophynyl)-3-methylbut-3-en-2-oxime. This compound can be obtained commercially from Maybridge (Cornwall, UK). Another example is Compound 40, N,N′-Bis-(2-hydroxybenzyl)-2,5-diamino-2,5-dimethylhexane, which has been described in U.S. Pat. No. 4,129,556. […] Thus, these two compounds can be readily used to treat or alleviate mechanical hyperalgesia as described in more detail below.

[2] = biological target: TRPA1 (Homo sapiens, UniProt O75762); test: FLIPR calcium-influx assay, block of cinnamaldehyde activation, CHO cells; type: cell-based; design: expressed in transfected cells; conditions: elicited by 50 μM cinnamaldehyde
Sequence of TRPA1 (O75762 whole entry): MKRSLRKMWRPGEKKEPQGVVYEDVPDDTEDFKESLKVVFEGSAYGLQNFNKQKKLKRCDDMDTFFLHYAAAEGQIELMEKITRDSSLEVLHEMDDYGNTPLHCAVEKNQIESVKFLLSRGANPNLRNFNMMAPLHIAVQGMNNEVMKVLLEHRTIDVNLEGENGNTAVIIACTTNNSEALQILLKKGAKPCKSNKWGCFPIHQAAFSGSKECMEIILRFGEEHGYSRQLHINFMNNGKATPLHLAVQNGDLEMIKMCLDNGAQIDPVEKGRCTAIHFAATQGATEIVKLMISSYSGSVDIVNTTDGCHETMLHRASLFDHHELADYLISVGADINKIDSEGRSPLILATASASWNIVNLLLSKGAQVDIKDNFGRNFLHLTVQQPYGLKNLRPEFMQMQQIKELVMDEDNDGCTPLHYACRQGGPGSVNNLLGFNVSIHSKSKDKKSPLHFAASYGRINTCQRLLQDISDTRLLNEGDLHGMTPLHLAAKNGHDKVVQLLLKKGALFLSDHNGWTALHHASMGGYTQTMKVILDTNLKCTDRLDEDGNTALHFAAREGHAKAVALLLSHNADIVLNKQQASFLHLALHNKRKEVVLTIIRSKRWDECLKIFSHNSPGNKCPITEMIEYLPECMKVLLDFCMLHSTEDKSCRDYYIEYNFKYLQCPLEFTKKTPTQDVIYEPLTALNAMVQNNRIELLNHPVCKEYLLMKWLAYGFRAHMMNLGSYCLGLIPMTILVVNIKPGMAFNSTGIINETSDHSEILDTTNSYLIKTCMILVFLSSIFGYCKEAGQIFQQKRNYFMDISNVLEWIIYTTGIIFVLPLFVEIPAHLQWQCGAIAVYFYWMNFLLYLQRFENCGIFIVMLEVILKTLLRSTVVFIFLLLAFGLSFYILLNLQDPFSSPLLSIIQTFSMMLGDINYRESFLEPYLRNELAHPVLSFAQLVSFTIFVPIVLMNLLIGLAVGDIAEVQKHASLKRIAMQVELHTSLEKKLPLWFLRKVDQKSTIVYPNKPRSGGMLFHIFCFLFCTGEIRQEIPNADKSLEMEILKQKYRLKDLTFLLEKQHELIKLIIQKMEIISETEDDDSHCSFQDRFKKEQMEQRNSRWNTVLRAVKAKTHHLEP
Procedure: Calcium influx was measured using a standard FLIPR assay, data points are the average of 4 wells (˜8,000 cells/well) and error bars show standard error. […] Data was generated using the FLIPR calcium-influx assay, n=3 wells (˜8,000 cells/well) and normalized to the maximal response. Bars show standard error and solid curves are hill equation fits from which EC50 values are derived.
Using FLIPR calcium-influx assay, we screened 43,648 small molecules for their ability to block cinnamaldehyde-activation of human TRPA1 in a CHO cell line.
FLIPR Screen: CHO cells expressing human TRPA1 were plated into 384 well plates at a concentration of ˜8,000 cells/well. Cells were transferred to phosphate-buffered saline (PBS) and loaded with the calcium sensitive dye FLUO-4 using the FLIPR Calcium 3 Assay Kit (Molecular Devices, Sunnyvale, Calif.) 1 hour prior to the assay. Assays were run using the FLIPR2 (Molecular Devices, Sunnyvale, Calif.). All compounds were diluted into PBS from a high concentration DMSO-based stock solution and added during data collection with the FLIPR2 internal pipette head. Final DMSO concentrations never exceeded 0.5%.

[3] = biological target: T1, mouse TRPA1 (Mus musculus, UniProt Q8BLA8); test: Whole-cell electrophysiology of TRPA1-expressing CHO cells (pressure, hyperosmolarity, cold); type: cell-based; conditions: data not shown
T1 construct: expressed in transfected cells; host or cells: CHO cells (tetracycline-induced for PatchXpress; mTRPA1-pcDNA5 named for the transient labelling experiment)
T1 sequence (Q8BLA8 whole entry): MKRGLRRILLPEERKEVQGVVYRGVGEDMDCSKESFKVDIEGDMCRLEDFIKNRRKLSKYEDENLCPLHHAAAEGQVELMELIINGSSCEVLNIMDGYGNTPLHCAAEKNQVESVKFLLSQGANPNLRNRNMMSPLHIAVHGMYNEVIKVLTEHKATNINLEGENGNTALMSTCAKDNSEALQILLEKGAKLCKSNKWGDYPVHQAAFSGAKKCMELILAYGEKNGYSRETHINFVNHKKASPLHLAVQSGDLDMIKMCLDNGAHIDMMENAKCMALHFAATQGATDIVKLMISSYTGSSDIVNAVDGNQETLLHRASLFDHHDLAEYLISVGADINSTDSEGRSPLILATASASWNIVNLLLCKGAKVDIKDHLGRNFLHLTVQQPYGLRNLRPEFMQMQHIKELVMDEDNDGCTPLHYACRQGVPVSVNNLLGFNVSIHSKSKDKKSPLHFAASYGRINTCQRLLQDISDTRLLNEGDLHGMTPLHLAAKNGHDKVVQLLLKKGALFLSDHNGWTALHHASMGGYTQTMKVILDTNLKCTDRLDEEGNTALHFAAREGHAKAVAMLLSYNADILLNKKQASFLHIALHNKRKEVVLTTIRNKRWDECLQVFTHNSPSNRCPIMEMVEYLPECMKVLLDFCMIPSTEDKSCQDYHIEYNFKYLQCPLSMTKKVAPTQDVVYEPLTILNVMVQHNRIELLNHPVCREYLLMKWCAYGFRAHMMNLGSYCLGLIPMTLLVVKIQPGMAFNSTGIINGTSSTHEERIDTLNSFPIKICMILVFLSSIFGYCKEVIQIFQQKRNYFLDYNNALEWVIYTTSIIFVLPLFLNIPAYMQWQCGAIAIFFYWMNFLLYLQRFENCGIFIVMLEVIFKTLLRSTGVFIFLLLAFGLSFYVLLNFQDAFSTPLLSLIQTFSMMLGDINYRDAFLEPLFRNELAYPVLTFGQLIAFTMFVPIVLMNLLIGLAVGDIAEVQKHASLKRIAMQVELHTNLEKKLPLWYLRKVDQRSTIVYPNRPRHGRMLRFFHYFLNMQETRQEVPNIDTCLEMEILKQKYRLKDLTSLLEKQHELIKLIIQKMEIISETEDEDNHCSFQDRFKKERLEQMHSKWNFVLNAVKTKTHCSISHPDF
Source text: We tested if TRPA1 is activated by mechanical forces. The electrophysiological behavior of thermoTRP-expressing Chinese Hamster Ovary (CHO) cells was investigated with two different assays of mechanical stress—pressure application using the recording pipette and changes in external osmolarity.
Mechanosensory neurons are often classified as high- or low-threshold, characterizing responses to pain and touch, respectively. We tested the mechanical threshold of TRPA1 by applying a wide range of negative pipette pressures (FIG. 1C). TRPA1-expressing CHO cells are activated at −90 mmHg or higher, consistent with native high-threshold mechanical receptors involved in sensing pain (Cho et al., J Neurosci 22:1238, 2002). […] Gadolinium (Gd^3+) is considered a blocker of native mechanically-gated ion channels in animal tissues (Martinac et al., Physiol Rev 81:685, 2001). […] FM1-43 is a styryl dye that specifically labels sensory cells by entering through open transduction channels. […] Furthermore, it was observed that 10 μM of FM1 -43 was able to block cinnamaldehyde-induced currents in TRPA1-expressing CHO cells (n=8).
To ensure that the mechanical response we observe is not an artifact of heterologous expression system, we tested if native TRPA1-expressing neurons also respond to such stimuli. 5/6 cinnamaldehyde-sensitive (presumptive TRPA1-expressing) DRG neurons responded to an application of −200 mmHg of suction, while 0/21 cinnamaldehyde insensitive neurons responded (16 of 21 were capsaicin-sensitive) (FIG. 2B). Millimolar camphor was recently reported to inhibit basal currents and cold or agonist-activation of TRPA1.
Mammalian cell electrophysiology: ThermoTRP-expressing CHO cells (rat TRPV1, rat TRPV2, mouse TRPV3, rat TRPV4, mouse TRPM8, and mouse TRPA1), control CHO cells, and cultured rat DRG neurons were prepared as described in Story et al., Cell 112:819, 2003; and Bandell et al., Neuron 41:849, 2004. Electrophysiological recordings were performed as described in Bandell et al., Neuron 41:849, 2004. Briefly, CHO cells were clamped at −60 mV and 0.8 second ramps from −80 mV to +80 mV were run every 4 seconds. Currents from DRG neurons were recorded at −60 mV and for their current-voltage curve, 300 ms voltage step at +20 mV was used 40 ms before 800 ms ramp from -80 mV to +80 mV to minimize contamination of voltage gated Na^+ or Ca^2+ current. The pipette solution for temperature and hyperosmotic experiments consisted of (in mM) 140 CsCl, 5 EGTA, 10 HEPES, 2 MgATP, 0.2 NaGTP, titrated to pH 7.4 with CsOH. The base external solution for these experiments consisted of (in mM) 140 NaCl, 5KCl, 10 HEPES, 2CaCl2, 1MgCl2, titrated to pH 7.4 with NaOH. Mannitol was used to adjust osmolarity for hypertonic solutions. For mouse TRPV3 and rat TRPV2, external calcium was replaced with 5 mM EGTA. Gluconate was substituted for chloride in (±)-pressure and hypotonic experiments to eliminate the potential for endogenous swelling-activated chloride currents. For these experiments, pipette solution (295 mOsm) consisted of (in mM) 125 Cs-gluconate, 15CsCl, 5 EGTA, 10 HEPES, 2 MgATP, 0.2NaGTP, titrated to pH 7.4 with CsOH. The external solution consisted of (in mM) 90 Na-gluconate, 10 NaCl, 5 K-gluconate, 10 HEPES, 2 CaCl2, 1 MgCl2, titrated to pH 7.4 with NaOH. Osmolarity was adjusted with mannitol to 220 mOsm (hypotonic) or 298 mOsm 15 (isotonic). (±)-Pressure was hydrostatically delivered by the recording pipette using syringe pumping (Hamill et al., Annu Rev Physiol 59:621, 1997) and monitored through Pressure Monitor (World Precision Instruments). Warner temperature controller (TC-324B and CL-100) was used for the heating or cooling the perfused bath solutions. […] The number of cells (n) tested with -100 mmHg to −300 mmHg, ˜+100 mmHg, 450 mOsm, and 220 mOsm for each cell type, respectively, are: CHO cells, n=7, 14, 5, 12; TRPV1, n=6, 5, 7, 5; TRPV2, n=4, 5, 3, 5; TRPV3, n=3, 2, 3, 0; TRPM8, n=12, 4, 10, 0. […]

[4] = system: cinnamaldehyde-induced nociceptive events; test: Acute nociceptive behaviour after hindpaw injection of cinnamaldehyde; type: in vivo, mice; conditions: cinnamaldehyde 16.4 mM coinjected with compound 18 1 mM
Procedure: Time spent licking and flicking hindpaws injected with cinnamaldehyde (16.4 mM) or capsaicin (0.328 mM) is measured for 5 min and compared with the hindpaw of another animal coinjected with compound 18 (1 mM). Numbers of cases for each experiment from the left is 8, 8, 6 and 6, respectively (***p<0.001, *p<0.05, two-tailed Student's T-test).
We next set out to test if acute block of TRPA1 had any physiological consequence on pain sensation. […] To test the efficacy and specificity of compound 18 in vivo, we coinjected cinnamaldehyde and compound 18 in hindpaw of mice.
Behavioral assays: Mice (C57B16 Mus musculus) of 8-10 weeks in age and 150-250 g Sprague Dawley rats were used for all behavioral assays. Animals were acclimated for 20-60 min to their testing environment prior to all experiments. Students' T test was used for all statistical calculations. All error bars represent standard error of the mean (SEM). […] Briefly, mice were acclimated for 60 min to their testing environment prior to all experiments.

[5] = Behavioral response to the compound alone in hindpaw; type: in vivo; conditions: 1-10 mM in hindpaw of mice (data not shown)

For `CC(=Cc1ccc(Cl)cc1)C(C)=NO` [Compound 18, (Z)-4-(4-chlorophynyl)-3-methylbut-3-en-2-oxime], the “effect on activation or activities of the other thermoTRPs” value [1] was “little or no effect”, the IC50 [2] was 3.1 µM and the “block of TRPA1 responses in CHO cells induced by cold” value [3] was “blocked”. For the same compound, the “block of TRPA1 responses in CHO cells induced by pressure” value [3] was “blocked”, the “cinnamaldehyde-induced nociceptive events (time spent licking and flicking hindpaw, 5 min)” value [4] was “suppresses; also recorded: significantly blocked” and the “behavioral response to the compound alone” value [5] was “did not cause any behavioral response”.
